Results from patent US20250304537A1 (Repare Therapeutics Inc., priority 2022, published 2025).
Where two headings read alike, the source gives them in different places.

Test system: PKMYT1 (CDK1 pThr14) in FUOV1 cells
Assay: PKMYT1 cell-based activity assay, CDK1 pThr14 AlphaLISA in FUOV1 cells
Conditions: 2 h, read-out: FUOV-1 CDK1 pThr14 IC50
Procedure, shortened: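 FUOV1 cells were treated with PKMYT1 inhibitor for 2 h at 37 °C, then lysed. CDK1 pThr14 was measured by AlphaLISA, pairing an anti-pThr14 antibody with an anti-total CDK1 antibody (5 nM each). Signal read at 680/615 nm and used to derive IC50.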

IC50 (2 h compound incubation)	IC50 (2 hours with compound)	SMILES
16 nM		Cc1ccc2[nH]ncc2c1-c1nc(-c2cc(F)cnc2N[C@H]2C[C@H](O)C2)nc(C(N)=O)c1N [Compound 690]
	47 nM	Cc1ccc2[nH]ncc2c1-c1nc(-c2cc(F)cnc2N[C@@H]2CC[C@H](O)C2)nc(C(N)=O)c1N [Compound 833]
42 nM		Cc1ccc2[nH]ncc2c1-c1nc(-c2cccnc2NC[C@H]2CCCOC2)nc(C(N)=O)c1N [Compound 667]
17 nM		Cc1ccc2[nH]ncc2c1-c1nc(-c2cc(F)cnc2N[C@H]2C[C@@H](O)C2)nc(C(N)=O)c1N [Compound 704]
	926 nM	Cc1ccc2[nH]ncc2c1-c1nc(-c2cn(C)nc2Nc2ccccn2)nc(C(N)=O)c1N [Compound 916, 5-amino-6-(5-methyl-1H-indazol-4-yl)-2-(1-methyl-3-(pyridin-2-ylamino)-1H-pyrazol-4-yl)pyrimidine-4-carboxamide]
	36 nM	Cc1ccc2[nH]ncc2c1-c1nc(-c2cc(F)cnc2NC2CC(O)C2(C)C)nc(C(N)=O)c1N (centres unmarked) [Compound 823]
45 nM		Cc1csc(Nc2cc(F)ccc2-c2nc(C(N)=O)c(N)c(-c3c(C)ccc4[nH]ncc34)n2)n1 [Compound 588]
	343 nM	Cc1ccc2[nH]ncc2c1-c1nc(-c2c[nH]nc2NC2CCOCC2)nc(C(N)=O)c1N [Compound 927]
48 nM		Cc1ccc2[nH]ncc2c1-c1nc(-c2cc(F)cnc2N[C@H]2C[C@@](C)(O)C2)nc(C(N)=O)c1N [Compound 733, 5-amino-2-(5-fluoro-2-(((1s,3s)-3-hydroxy-3-methylcyclobutyl)amino)pyridin-3-yl)-6-(5-methyl-1H-indazol-4-yl)pyrimidine-4-carboxamide]
	21 nM	NC(=O)c1nc(-c2ccc(F)nc2Nc2ncccc2F)nc(-c2c(F)ccc3[nH]ncc23)c1N [Compound 971]
10 nM		Cc1ccc2[nH]ncc2c1-c1nc(-c2cc(F)cnc2NC2CCOCC2)nc(C(N)=O)c1N [Compound 686]
	5 nM	Cc1ccc(F)c(Nc2nc(F)ccc2-c2nc(C(N)=O)c(N)c(-c3c(C)c(F)cc4[nH]ncc34)n2)n1 [Compound 850]
	200 nM	Cc1ccc2[nH]ncc2c1-c1nc(-c2cn(C(F)(F)F)nc2NC2CCOCC2)nc(C(N)=O)c1N [Compound 910]
72 nM		Cc1ccc2[nH]ncc2c1-c1nc(-c2cccnc2NC2CCOCC2(C)C)nc(C(N)=O)c1N (centres unmarked) [Compound 596]
	55 nM	Cc1cc(F)c2[nH]ncc2c1-c1nc(-c2cc(F)cnc2N[C@H]2CCOC2)nc(C(N)=O)c1N [Compound 869]
	88 nM	Cc1c(F)cc2[nH]ncc2c1-c1nc(-c2ccc(F)nc2Nc2nccnc2C(F)F)nc(C(N)=O)c1N [Compound 854]
	2 nM	Cc1ccc2[nH]ncc2c1-c1nc(-c2ccncc2Nc2ncccc2F)nc(C(N)=O)c1N [Compound 938]
164 nM		Cc1cccnc1Nc1cc(F)ccc1-c1nc(C(N)=O)c(N)c(-c2c(C)ccc3[nH]ncc23)n1 [Compound 671]
871 nM		Cc1ccc2[nH]ncc2c1-c1nc(-c2cc(F)c(F)cc2NC2CC(C)(C)NC(C)(C)C2)nc(C(N)=O)c1N [Compound 502]
> 10000 nM		Cc1ccc2[nH]ncc2c1-c1nc(-c2cccnc2NC[C@H]2CCO2)nc(C(N)=O)c1N [Compound 649]
25 nM		Cc1ccc2[nH]ncc2c1-c1nc(-c2ccc(Cl)nc2Nc2nccnc2C)nc(C(N)=O)c1N [Compound 780]
	14 nM	Cc1ccc2[nH]ncc2c1-c1nc(-c2ccc(C(F)F)nc2Nc2ncccc2F)nc(C(N)=O)c1N [Compound 931]
146 nM		Cc1ccc2[nH]ncc2c1-c1nc(-c2cc(F)c(F)cc2NCC(N)CO)nc(C(N)=O)c1N (centres unmarked) [Compound 501]
	41 nM	Cc1c(F)cc2[nH]ncc2c1-c1nc(-c2cc(F)cnc2NCC(C)(C)C#N)nc(C(N)=O)c1N [Compound 859]
16 nM		Cc1ccc2[nH]ncc2c1-c1nc(-c2ccc(F)cc2Nc2ccncn2)nc(C(N)=O)c1N [Compound 513]
41 nM		Cc1ccncc1Nc1cc(F)ccc1-c1nc(C(N)=O)c(N)c(-c2c(C)ccc3[nH]ncc23)n1 [Compound 664]
